pEC50: −log10 of the molar value.
Legend:
CHIKV = CHIKV virus titer reduction (VTR) assay in NHDF cells; type: cell-based; conditions: Chikungunya virus; for log reduction at 10 µM: CHIKV titer reduction at 10 μM, normal human dermal fibroblasts (NHDF) cells; for EC90: effective concentration of 90% inhibition of virus in a VTR assay, NHDF cells
[1] = system: Chikungunya virus (CHIKV) strain SL15649; assay: CHIKV-infected mice, 10 days oral treatment: footpad swelling and viremia
VEEV = assay: microbe, parasite or virus in culture; type: cell-based; conditions: Venezuelan equine encephalitis virus, NHDF; for EC90: read-out: VEEV EC90; for log reduction at 10 µM: read-out: VEEV VTR
[2] = system: CHIKV linked NanoLuc luciferase reporter; assay: microbe, parasite or virus in culture; type: cell-based; conditions: Chikungunya virus, read-out: CHIKV EC50
VEEV (TC-83) = assay: microbe, parasite or virus in culture; type: cell-based; conditions: Venezuelan equine encephalitis virus, read-out: VEEV EC50
[3] = system: Chikungunya virus (CHIKV) strain SL15649; assay: CHIKV-infected mice, 5 days oral treatment: tissue viral loads
in vitro = conditions: human

O=C(COc1cc[nH]c(=O)n1)NC12CC3CC(CC(C3)C1)C2 [Compound No. 7, N-(Adamantan-1-Yl)-2-((2-Oxo-1,2-Dihydropyrimidin-4-Yl)Oxy)Acetamide]
log reduction at 10 µM (CHIKV): 3.68 | EC90 (CHIKV): 0.7 µM | Adverse toxicity ([1]; mice treated three times per day for 10 days per os): No adverse toxicity was observed | Footpad swelling in the ipsilateral foot ([1]; mice, 40 mg/kg 3× daily p.o., days 3-8, compared to vehicle treated mice): reduced swelling in the ipsilateral foot at days 3, 4, 5, 6, 7, and 8 | Viral loads in serum ([1]; mice, 40 mg/kg 3× daily p.o., serum at 3 days post infection, p=0.0003): did not have detectable viral loads in serum samples | Tissue distribution ([1]; mice, per os three times per day): distributed to a number of tissue types including joints and muscles | EC90 (VEEV): 1.1 µM | log reduction at 10 µM (VEEV): 1.79 | pEC50 [2]: 5.49 | pEC50 (VEEV (TC-83)): 4.41 | Adverse toxicity ([3]; mice treated three times per day for 5 days per os): No adverse toxicity was observed | Infectious viral loads in Ipsilateral ankle ([3]; mice, 40 mg/kg 3× daily p.o., 5 dpi, p<0.0001): reduced infectious viral loads | Infectious viral loads in Contralateral ankle ([3]; mice, 40 mg/kg 3× daily p.o., 5 dpi, p=0.0009): reduced infectious viral loads | CC50 (in vitro): > 40 µM

Cc1[nH]c(=O)nc(SCC(=O)NC23CC4CC(CC(C4)C2)C3)c1C#N [compound 2]
log reduction at 10 µM (CHIKV): 1.25 | log reduction at 10 µM (VEEV): 1.1 | pEC50 [2]: 4.64 | pEC50 (VEEV (TC-83)): < 4.40 | CC50 (in vitro): > 40 µM

O=C(COc1nc(=O)[nH]c(N2CC(F)(F)C2)c1F)NC12CC3CC(CC(C3)C1)C2 [compound 35, N-(Adamantan-1-Yl)-2-((6-(3,3-Difluoroazetidin-1-Yl)-5-Fluoro-2-Oxo-1,2-Dihydropyrimidin-4-Yl)Oxy)Acetamide]
log reduction at 10 µM (CHIKV): 4 | EC90 (CHIKV): 0.051 µM | EC90 (VEEV): 1.5 µM | log reduction at 10 µM (VEEV): 3.35 | pEC50 [2]: 6.15 | pEC50 (VEEV (TC-83)): 5.28 | CC50 (in vitro): > 40 µM

COc1[nH]c(=O)nc(OCC(=O)NC23CC4CC(CC(C4)C2)C3)c1F [compound 46, N-(adamantan-1-yl)-2-((5-fluoro-6-methoxy-2-oxo-1,2-dihydropyrimidin-4-yl)oxy)acetamide]
log reduction at 10 µM (CHIKV): 0.42 | EC90 (CHIKV): > 10 µM | EC90 (VEEV): > 10 µM | log reduction at 10 µM (VEEV): 0 | pEC50 [2]: < 4.40 | pEC50 (VEEV (TC-83)): < 4.40 | CC50 (in vitro): > 40 µM

O=C(COc1nc(=O)[nH]cc1Cl)NC12CC3CC(CC(C3)C1)C2 [compound 28, N-(Adamantan-1-Yl)-2-((5-Chloro-2-Oxo-1,2-Dihydropyrimidin-4-Yl)Oxy)Acetamide]
log reduction at 10 µM (CHIKV): 1.6 | EC90 (CHIKV): 10 µM | EC90 (VEEV): > 10 µM | log reduction at 10 µM (VEEV): 0.71 | pEC50 [2]: 4.48 | pEC50 (VEEV (TC-83)): < 4.40 | CC50 (in vitro): > 40 µM

O=C(COc1nc(=O)[nH]c2c1COCC2)NC12CC3CC(CC(C3)C1)C2 [compound 23, N-(Adamantan-1-Yl)-2-((2-Oxo-1,5,7,8-Tetrahydro-2H-Pyrano[4,3-D]Pyrimidin-4-Yl)Oxy)Acetamide]
log reduction at 10 µM (CHIKV): 5.85 | EC90 (CHIKV): 0.2 µM | EC90 (VEEV): 2.1 µM | log reduction at 10 µM (VEEV): 6.4 | pEC50 [2]: 5.95 | pEC50 (VEEV (TC-83)): 4.96 | CC50 (in vitro): > 40 µM

O=C(COc1nc(=O)[nH]c2c1CCC2)NC12CC3CC(CC(C3)C1)C2 [compound 21, N-(Adamantan-1-Yl)-2-((2-Oxo-2,5,6,7-Tetrahydro-1H-Cyclopenta[D]Pyrimidin-4-Yl)Oxy)Acetamide]
log reduction at 10 µM (CHIKV): 4.26 | EC90 (CHIKV): 0.3 µM | EC90 (VEEV): 1 µM | log reduction at 10 µM (VEEV): 5.2 | pEC50 [2]: 6.28 | pEC50 (VEEV (TC-83)): 4.80 | CC50 (in vitro): > 40 µM

O=C(COc1cc(OC2CC(F)(F)C2)[nH]c(=O)n1)NC12CC3CC(CC(C3)C1)C2 [compound 47, N-(Adamantan-1-Yl)-2-((6-(3,3-Difluorocyclobutoxy)-2-Oxo-1,2-Dihydropyrimidin-4-Yl)Oxy)Acetamide]
log reduction at 10 µM (CHIKV): 5.66 | EC90 (CHIKV): 0.8 µM | EC90 (VEEV): > 10 µM | log reduction at 10 µM (VEEV): 0.28 | pEC50 [2]: 5.17 | pEC50 (VEEV (TC-83)): < 4.40 | CC50 (in vitro): > 40 µM

O=C(COc1cc(C(F)(F)F)[nH]c(=O)n1)NC12CC3CC(CC(C3)C1)C2 [compound 16, N-(Adamantan-1-Yl)-2-((2-Oxo-6-(Trifluoromethyl)-1,2-Dihydropyrimidin-4-Yl)Oxy)Acetamide]
log reduction at 10 µM (CHIKV): 1.09 | EC90 (CHIKV): 15 µM | EC90 (VEEV): > 10 µM | log reduction at 10 µM (VEEV): 0 | pEC50 [2]: < 4.40 | pEC50 (VEEV (TC-83)): < 4.40 | CC50 (in vitro): > 40 µM

COc1cc(OCC(=O)NC23CC4CC(CC(C4)C2)C3)nc(=O)[nH]1 [compound 36, N-(adamantan-1-yl)-2-((6-methoxy-2-oxo-1,2-dihydropyrimidin-4-yl)oxy)acetamide]
log reduction at 10 µM (CHIKV): 4.56 | EC90 (CHIKV): 0.23 µM | EC90 (VEEV): > 10 µM | log reduction at 10 µM (VEEV): 0.63 | pEC50 [2]: 5.94 | pEC50 (VEEV (TC-83)): < 4.40 | CC50 (in vitro): > 40 µM

CC(C)Oc1cc(OCC(=O)NC23CC4CC(CC(C4)C2)C3)nc(=O)[nH]1 [compound 45, N-(Adamantan-1-Yl)-2-((6-Isopropoxy-2-Oxo-1,2-Dihydropyrimidin-4-Yl)Oxy)Acetamide]
log reduction at 10 µM (CHIKV): 5.58 | EC90 (CHIKV): 0.08 µM | EC90 (VEEV): 0.98 µM | log reduction at 10 µM (VEEV): 2.62 | pEC50 [2]: 6.37 | pEC50 (VEEV (TC-83)): 5.05 | CC50 (in vitro): > 40 µM

O=C(COc1cc(Oc2ccc(F)cc2)[nH]c(=O)n1)NC12CC3CC(CC(C3)C1)C2 [compound 37, N-(adamantan-1-yl)-2-((6-(4-fluorophenoxy)-2-oxo-1,2-dihydropyrimidin-4-yl)oxy)acetamide]
log reduction at 10 µM (CHIKV): 0 | EC90 (CHIKV): > 10 µM | EC90 (VEEV): > 10 µM | log reduction at 10 µM (VEEV): 0.8 | pEC50 [2]: < 4.40 | pEC50 (VEEV (TC-83)): < 4.40 | CC50 (in vitro): > 40 µM

N#Cc1ccc(-c2cc(OCC(=O)NC34CC5CC(CC(C5)C3)C4)nc(=O)[nH]2)cc1 [compound 17, N-(Adamantan-1-Yl)-2-((6-(4-Cyanophenyl)-2-Oxo-1,2-Dihydropyrimidin-4-Yl)Oxy)Acetamide]
log reduction at 10 µM (CHIKV): 1.59 | EC90 (CHIKV): > 40 µM | EC90 (VEEV): 9.8 µM | log reduction at 10 µM (VEEV): 3.69 | pEC50 [2]: < 4.40 | pEC50 (VEEV (TC-83)): < 4.40 | CC50 (in vitro): > 40 µM

O=C(CSc1cc[nH]c(=O)n1)NC12CC3CC(CC(C3)C1)C2 [compound 3, N-(Adamantan-1-Yl)-2-((2-Oxo-1,2-Dihydropyrimidin-4-Yl)Thio)Acetamide]
log reduction at 10 µM (CHIKV): 7.44 | EC90 (CHIKV): 0.31 µM | EC90 (VEEV): 0.31 µM | log reduction at 10 µM (VEEV): 4.49 | pEC50 [2]: 6.30 | pEC50 (VEEV (TC-83)): 5.60 | CC50 (in vitro): > 40 µM

Cc1[nH]c(=O)nc(SCC(=O)NC23CC4CC(CC(C4)C2)C3)c1C(=O)O [compound 38, 4-((2-((Adamantan-1-Yl)Amino)-2-Oxoethyl)Thio)-6-Methyl-2-Oxo-1,2-Dihydropyrimidine-5-Carboxylic Acid]
log reduction at 10 µM (CHIKV): 1.19 | log reduction at 10 µM (VEEV): 0.23 | pEC50 [2]: < 4.40 | pEC50 (VEEV (TC-83)): < 4.40 | CC50 (in vitro): > 40 µM

Cc1[nH]c(=O)nc(OCC(=O)NC23CC4CC(CC(C4)C2)C3)c1C [compound 29, N-(Adamantan-1-Yl)-2-((5,6-Dimethyl-2-Oxo-1,2-Dihydropyrimidin-4-Yl)Oxy)Acetamide]
log reduction at 10 µM (CHIKV): 4.24 | EC90 (CHIKV): 0.4 µM | EC90 (VEEV): 2.97 µM | log reduction at 10 µM (VEEV): 2.91 | pEC50 [2]: 5.64 | pEC50 (VEEV (TC-83)): < 4.40 | CC50 (in vitro): > 40 µM

O=C(COc1cc[nH]c(=O)n1)NC1C2CC3CC(C2)CC1C3 (stereo not shown) [compound 8, N-(Adamantan-2-Yl)-2-((2-Oxo-1,2-Dihydropyrimidin-4-Yl)Oxy)Acetamide]
log reduction at 10 µM (CHIKV): 1.05 | EC90 (CHIKV): 0.21 µM | EC90 (VEEV): 0.08 µM | log reduction at 10 µM (VEEV): 1.94 | pEC50 [2]: < 4.40 | pEC50 (VEEV (TC-83)): < 4.40 | CC50 (in vitro): > 40 µM

O=C(COc1cc(C2CC2)[nH]c(=O)n1)NC12CC3CC(CC(C3)C1)C2 [compound 11, N-(Adamantan-1-Yl)-2-((6-Cyclopropyl-2-Oxo-1,2-Dihydropyrimidin-4-Yl)Oxy)Acetamide]
log reduction at 10 µM (CHIKV): 1.05 | EC90 (CHIKV): 0.56 µM | EC90 (VEEV): 1.1 µM | log reduction at 10 µM (VEEV): 2.97 | pEC50 [2]: 6.62 | pEC50 (VEEV (TC-83)): 4.69 | CC50 (in vitro): > 40 µM

O=C(COc1nc(=O)[nH]c2ccccc12)NC12CC3CC(CC(C3)C1)C2 [compound 24, N-(Adamantan-1-Yl)-2-((2-Oxo-1,2-Dihydroquinazolin-4-Yl)Oxy)Acetamide]
log reduction at 10 µM (CHIKV): 6.28 | EC90 (CHIKV): 0.3 µM | EC90 (VEEV): 3.2 µM | log reduction at 10 µM (VEEV): 1 | pEC50 [2]: 6.33 | pEC50 (VEEV (TC-83)): < 4.40 | CC50 (in vitro): > 40 µM
